Results from patent publication US20250161319A1, “USE OF HPK1 INHIBITOR IN TREATMENT OF INTERFERON-RELATED DISEASES” (priority 2022, published 2025).

Columns and labels:
MNK1/2 = experiment: Kinase panel inhibition rate at 10 μM; type: biochemical
IKK-beta = IKK-beta (Homo sapiens (Human), UniProt O14920); experiment: Kinase panel inhibition rate at 10 μM; type: biochemical
HPK1 = HPK1 (Homo sapiens (Human), UniProt Q92918); experiment: Inhibition of HPK1 kinase activity in vitro (ADP-Glo), compounds of Formula I-2; type: biochemical
Experimental: The starting concentration for all tested compounds was 10 μM, and diluted in three-fold concentration gradient for a total of 10 concentration points in duplicate. Before the experiment, 50 μM DTT and the enzymatic reaction system buffer were prepared. […] A mixture of 2-fold concentration of MBP and ATP was prepare in the kinase buffer, and 2.5 μL of prepared mixture of 2-fold concentration of MBP and ATP was added into the above reaction system for the reaction, centrifuged at 1000 g for 30 s, and then incubated at room temperature for 1 h. 5 μL of ADP-Glo reagent was added into the reaction system, and incubated at room temperature for 40 min. 10 μL of kinase detection reagent was added and incubated at room temperature for 40 min. […] In the above formula, empd refers to the tested compound, PC refers to the positive control, and VC refers to the negative control.

ERK1.2 = experiment: Kinase panel inhibition rate at 10 μM; type: biochemical
PI3Kα = PI3Kα (Homo sapiens (Human), UniProt P42336); experiment: Kinase panel inhibition rate at 10 μM; type: biochemical
EGFR = EGFR (Homo sapiens (Human), UniProt P00533); experiment: Kinase panel inhibition rate at 10 μM; type: biochemical
EGFR, sequence (P00533 25-1210): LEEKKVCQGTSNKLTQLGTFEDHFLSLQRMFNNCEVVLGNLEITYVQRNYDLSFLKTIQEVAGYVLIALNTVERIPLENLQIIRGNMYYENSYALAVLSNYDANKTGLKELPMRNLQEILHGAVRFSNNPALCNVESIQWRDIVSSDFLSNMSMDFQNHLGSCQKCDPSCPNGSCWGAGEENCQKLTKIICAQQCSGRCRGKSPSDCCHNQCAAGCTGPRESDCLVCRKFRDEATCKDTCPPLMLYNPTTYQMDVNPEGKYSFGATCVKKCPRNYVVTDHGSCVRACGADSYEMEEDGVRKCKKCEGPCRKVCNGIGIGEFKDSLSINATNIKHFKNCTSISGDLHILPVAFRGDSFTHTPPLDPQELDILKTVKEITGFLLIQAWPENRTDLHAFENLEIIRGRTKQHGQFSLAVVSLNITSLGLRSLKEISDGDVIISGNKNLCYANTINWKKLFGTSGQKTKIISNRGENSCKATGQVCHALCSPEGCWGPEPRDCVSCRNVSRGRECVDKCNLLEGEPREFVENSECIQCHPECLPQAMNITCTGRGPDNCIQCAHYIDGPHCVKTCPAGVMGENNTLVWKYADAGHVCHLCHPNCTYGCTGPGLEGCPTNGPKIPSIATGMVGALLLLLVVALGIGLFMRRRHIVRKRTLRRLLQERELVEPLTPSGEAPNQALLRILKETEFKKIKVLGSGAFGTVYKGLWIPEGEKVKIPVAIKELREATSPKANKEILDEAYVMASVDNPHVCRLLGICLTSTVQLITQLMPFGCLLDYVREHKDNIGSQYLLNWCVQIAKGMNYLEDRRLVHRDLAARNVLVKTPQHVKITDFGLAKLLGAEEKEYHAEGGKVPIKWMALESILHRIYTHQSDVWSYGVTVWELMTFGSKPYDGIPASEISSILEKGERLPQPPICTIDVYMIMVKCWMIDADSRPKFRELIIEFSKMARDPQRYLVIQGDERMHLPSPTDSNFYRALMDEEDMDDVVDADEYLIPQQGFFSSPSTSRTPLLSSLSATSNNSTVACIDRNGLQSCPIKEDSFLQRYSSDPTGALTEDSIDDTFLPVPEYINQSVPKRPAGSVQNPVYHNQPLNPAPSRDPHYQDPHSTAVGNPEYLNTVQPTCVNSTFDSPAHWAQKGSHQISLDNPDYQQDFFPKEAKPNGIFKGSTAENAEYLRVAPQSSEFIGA

p38-alpha = p38-alpha (Homo sapiens (Human), UniProt Q16539); experiment: Kinase panel inhibition rate at 10 μM; type: biochemical
AKT1 = AKT1 (Homo sapiens (Human), UniProt P31749); experiment: Kinase panel inhibition rate at 10 μM; type: biochemical
CDK4 = CDK4 (Homo sapiens (Human), UniProt P11802); experiment: Kinase panel inhibition rate at 10 μM; type: biochemical
CDK4, sequence (P11802 whole entry): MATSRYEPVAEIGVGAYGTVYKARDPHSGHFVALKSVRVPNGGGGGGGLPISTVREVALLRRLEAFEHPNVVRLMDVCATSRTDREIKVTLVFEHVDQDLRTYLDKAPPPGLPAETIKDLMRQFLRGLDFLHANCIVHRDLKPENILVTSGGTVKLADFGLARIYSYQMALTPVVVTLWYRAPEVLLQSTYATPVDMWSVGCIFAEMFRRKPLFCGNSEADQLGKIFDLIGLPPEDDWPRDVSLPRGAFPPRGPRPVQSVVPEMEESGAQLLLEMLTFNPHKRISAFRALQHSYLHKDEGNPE
CDK4, sequence (P30281 whole entry partner): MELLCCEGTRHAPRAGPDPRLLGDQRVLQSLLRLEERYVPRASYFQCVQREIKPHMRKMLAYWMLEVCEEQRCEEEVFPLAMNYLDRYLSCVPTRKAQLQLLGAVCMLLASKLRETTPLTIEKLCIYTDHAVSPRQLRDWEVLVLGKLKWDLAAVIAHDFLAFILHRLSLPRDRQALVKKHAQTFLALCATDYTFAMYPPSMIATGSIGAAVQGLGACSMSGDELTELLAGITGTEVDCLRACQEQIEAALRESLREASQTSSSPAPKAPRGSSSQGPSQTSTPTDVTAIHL

GCK = GCK (Homo sapiens (Human), UniProt Q12851); experiment: Inhibition of GCK kinase activity in vitro (ADP-Glo); type: biochemical
Experimental: (§1) The starting concentration for all tested compounds was 10 μM, and diluted in three-fold concentration gradient for a total of 10 concentration points in duplicate. […] A mixture of 2-fold concentration of MBP and ATP was prepare in the kinase buffer, and 2.5 μL of prepared mixture of 2-fold concentration of MBP and ATP was added into the above reaction system for the reaction, centrifuged at 1000 g for 30 s, and then incubated at room temperature for 1 h. 5 μL of ADP-Glo reagent was added into the reaction system, and incubated at room temperature for 40 min. 10 μL of kinase detection reagent was added and incubated at room temperature for 40 min.

CK1gamma1 = CK1gamma1 (Homo sapiens (Human), UniProt Q9HCP0); experiment: Kinase panel inhibition rate at 10 μM; type: biochemical
LCK = LCK (Homo sapiens (Human), UniProt P06239); experiment: Kinase panel inhibition rate at 10 μM; type: biochemical
CDK12 = CDK12 (Homo sapiens (Human), UniProt Q9NYV4); experiment: Kinase panel inhibition rate at 10 μM; type: biochemical
[1] = Determination of pharmacokinetic parameters in SD rats; type: in vivo; conditions: rat, plasma, oral; male SD rats; intravenously 2 mg/kg, gavage 10 mg/kg; read-out: Absolute oral bioavailability %
Experimental: The compounds to be tested were administered intravenously (2 mg/kg) and by gavage ([…]) to three male SD rats, respectively, and the blood concentration of the compounds to be tested in plasma was quantified by liquid chromatography tandem mass spectrometry ([…]), and the pharmacokinetic parameters were calculated to investigate the pharmacokinetic profiles of the compounds to be tested in the SD male rats. For the compounds to be tested, blood was taken at the time points of 0.25 h, 0.5 h, 1 h, 2 h, 4 h, 6 h, 8 h and 24 h after oral administration, and blood was taken at the time points of 0.083 h, 0.25 h, 0.5 h, 1 h, 2 h, 4 h, 6 h, 8 h and 24 h after intravenous administration. Subsequently, 50 μL of plasma sample was transferred to a 96-well plate and 250 μLACN (internal standard containing 260 ng/ml toluenesulfonylbutyramide) to precipitate proteins, and centrifuged at 4° C. and 4000 rpm for 20 min, 150 μL of the supernatant was transferred to a new 96-well plate and mixed with 150 μL of 0.1% FA/water, and then 5 μL of the resulting solution was loaded on LC-MS/MS for analysis.

LYNB = LYNB (Homo sapiens (Human), UniProt P07948); experiment: Kinase panel inhibition rate at 10 μM; type: biochemical
LYNB, sequence (P07948 other isoform, or with tags, fused parts or gaps): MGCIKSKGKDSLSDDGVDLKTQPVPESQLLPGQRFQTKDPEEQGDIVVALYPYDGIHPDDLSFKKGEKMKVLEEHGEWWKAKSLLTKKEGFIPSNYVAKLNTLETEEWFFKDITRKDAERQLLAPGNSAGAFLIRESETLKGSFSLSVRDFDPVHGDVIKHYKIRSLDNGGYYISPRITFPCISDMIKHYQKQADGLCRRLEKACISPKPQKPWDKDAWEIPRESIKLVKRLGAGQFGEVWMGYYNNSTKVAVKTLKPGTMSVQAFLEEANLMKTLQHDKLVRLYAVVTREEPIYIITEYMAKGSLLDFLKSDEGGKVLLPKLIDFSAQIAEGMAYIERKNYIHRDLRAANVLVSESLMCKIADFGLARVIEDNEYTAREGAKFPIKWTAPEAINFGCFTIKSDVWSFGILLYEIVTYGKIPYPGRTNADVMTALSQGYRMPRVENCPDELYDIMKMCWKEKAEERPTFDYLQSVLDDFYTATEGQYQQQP

IGFIR = IGFIR (Homo sapiens (Human), UniProt P08069); experiment: Kinase panel inhibition rate at 10 μM; type: biochemical
ROS1 = ROS1 (Homo sapiens (Human), UniProt P08922); experiment: Kinase panel inhibition rate at 10 μM; type: biochemical
[2] = Acute toxicity assay of DD02001A_trans in mice by gavage; type: in vivo; conditions: single dose, observed 14 days
Experimental: Mice were given DD02001A_trans (2000, 1500, 1000, and 500 mg/kg) by gavage in a single dose, respectively, and the responses of the mice after administration and their deaths within two weeks were recorded. • 2.2.5.1 Animals: Kunming breed mice (purchased from Guangdong Provincial Laboratory Animal Centre, License No.: SCXK(GD) 2018-0002), 10 mice, half male and half female, weighing 18-22 g. The mice were kept for three days to adapt to the environment. […] Necropsy was carried out on the dead animals in time to record the lesions. If obvious changes are visible to naked eyes, pathological section should be made.

PDK1 = PDK1 (Homo sapiens (Human), UniProt O15530); experiment: Inhibition of PDK1 kinase activity in vitro (ADP-Glo); type: biochemical
Experimental: as §1

CSF1R = CSF1R (Homo sapiens (Human), UniProt P07333); experiment: Kinase panel inhibition rate at 10 μM; type: biochemical
CSF1R, sequence (P07333 20-972, species assumed): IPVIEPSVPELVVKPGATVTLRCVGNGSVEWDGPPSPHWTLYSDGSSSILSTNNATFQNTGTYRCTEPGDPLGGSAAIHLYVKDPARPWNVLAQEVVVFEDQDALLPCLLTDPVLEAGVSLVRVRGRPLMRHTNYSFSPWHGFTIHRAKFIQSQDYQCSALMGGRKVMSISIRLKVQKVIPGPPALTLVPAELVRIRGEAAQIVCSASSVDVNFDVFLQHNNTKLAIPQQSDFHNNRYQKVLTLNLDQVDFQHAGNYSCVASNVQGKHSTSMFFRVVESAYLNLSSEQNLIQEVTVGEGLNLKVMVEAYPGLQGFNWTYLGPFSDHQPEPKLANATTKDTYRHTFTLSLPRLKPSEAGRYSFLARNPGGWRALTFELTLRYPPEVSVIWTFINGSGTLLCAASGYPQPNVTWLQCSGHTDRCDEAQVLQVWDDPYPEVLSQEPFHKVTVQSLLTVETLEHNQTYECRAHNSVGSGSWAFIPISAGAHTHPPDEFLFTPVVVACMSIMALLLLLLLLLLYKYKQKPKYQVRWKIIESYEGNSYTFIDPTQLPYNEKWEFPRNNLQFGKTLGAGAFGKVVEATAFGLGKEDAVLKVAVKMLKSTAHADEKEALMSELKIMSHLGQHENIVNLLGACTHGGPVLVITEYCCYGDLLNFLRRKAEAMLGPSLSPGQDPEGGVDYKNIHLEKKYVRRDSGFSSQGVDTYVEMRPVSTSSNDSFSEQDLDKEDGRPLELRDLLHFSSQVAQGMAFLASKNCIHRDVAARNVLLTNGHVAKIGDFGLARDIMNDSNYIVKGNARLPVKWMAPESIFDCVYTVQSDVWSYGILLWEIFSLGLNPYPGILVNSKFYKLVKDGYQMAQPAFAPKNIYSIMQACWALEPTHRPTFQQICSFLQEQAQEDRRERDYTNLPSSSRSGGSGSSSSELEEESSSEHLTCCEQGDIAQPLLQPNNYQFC

ZAP70 = ZAP70 (Homo sapiens (Human), UniProt P43403); experiment: Kinase panel inhibition rate at 10 μM; type: biochemical
TNIK = TNIK (Homo sapiens (Human), UniProt Q9UKE5); experiment: Inhibition of TNIK kinase activity in vitro (ADP-Glo); type: biochemical
Experimental: as §1

JAK1 = JAK1 (Homo sapiens (Human), UniProt P23458); experiment: Kinase panel inhibition rate at 10 μM; type: biochemical
SYK = SYK (Homo sapiens (Human), UniProt P43405); experiment: Kinase panel inhibition rate at 10 μM; type: biochemical
CDK7 = CDK7 (Homo sapiens (Human), UniProt P50613); experiment: Kinase panel inhibition rate at 10 μM; type: biochemical
CDK7, sequence (P50613 whole entry): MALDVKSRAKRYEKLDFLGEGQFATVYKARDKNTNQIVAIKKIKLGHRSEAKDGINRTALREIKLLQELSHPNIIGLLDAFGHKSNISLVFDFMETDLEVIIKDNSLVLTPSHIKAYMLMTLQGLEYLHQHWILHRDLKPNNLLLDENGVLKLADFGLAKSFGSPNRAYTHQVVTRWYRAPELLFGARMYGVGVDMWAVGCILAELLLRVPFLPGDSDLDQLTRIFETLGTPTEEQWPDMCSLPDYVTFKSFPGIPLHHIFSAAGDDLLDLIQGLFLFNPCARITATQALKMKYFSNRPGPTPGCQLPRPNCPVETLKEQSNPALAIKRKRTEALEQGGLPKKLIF
CDK7, sequence (P51946 whole entry partner): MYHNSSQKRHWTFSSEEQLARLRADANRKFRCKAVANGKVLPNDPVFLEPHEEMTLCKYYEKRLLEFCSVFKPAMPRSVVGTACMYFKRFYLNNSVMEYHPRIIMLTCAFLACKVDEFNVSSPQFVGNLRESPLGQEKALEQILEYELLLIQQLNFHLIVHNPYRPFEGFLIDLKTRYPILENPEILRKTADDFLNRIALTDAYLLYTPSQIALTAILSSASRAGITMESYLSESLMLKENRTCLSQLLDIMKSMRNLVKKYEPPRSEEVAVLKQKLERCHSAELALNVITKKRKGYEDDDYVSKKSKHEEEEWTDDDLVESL
CDK7, sequence (P51948 whole entry partner): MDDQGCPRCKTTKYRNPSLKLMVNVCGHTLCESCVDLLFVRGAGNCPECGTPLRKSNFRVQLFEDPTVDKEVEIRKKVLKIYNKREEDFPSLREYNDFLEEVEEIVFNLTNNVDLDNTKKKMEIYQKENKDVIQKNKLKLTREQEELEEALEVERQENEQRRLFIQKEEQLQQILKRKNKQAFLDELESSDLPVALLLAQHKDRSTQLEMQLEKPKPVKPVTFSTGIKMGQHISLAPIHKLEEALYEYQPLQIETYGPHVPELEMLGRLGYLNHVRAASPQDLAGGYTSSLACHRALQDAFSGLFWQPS

ATR = ATR (Homo sapiens (Human), UniProt Q13535); experiment: Kinase panel inhibition rate at 10 μM; type: biochemical
HER2 = HER2 (Homo sapiens (Human), UniProt P04626); experiment: Kinase panel inhibition rate at 10 μM; type: biochemical

IKK-beta, sequence (O14920 whole entry): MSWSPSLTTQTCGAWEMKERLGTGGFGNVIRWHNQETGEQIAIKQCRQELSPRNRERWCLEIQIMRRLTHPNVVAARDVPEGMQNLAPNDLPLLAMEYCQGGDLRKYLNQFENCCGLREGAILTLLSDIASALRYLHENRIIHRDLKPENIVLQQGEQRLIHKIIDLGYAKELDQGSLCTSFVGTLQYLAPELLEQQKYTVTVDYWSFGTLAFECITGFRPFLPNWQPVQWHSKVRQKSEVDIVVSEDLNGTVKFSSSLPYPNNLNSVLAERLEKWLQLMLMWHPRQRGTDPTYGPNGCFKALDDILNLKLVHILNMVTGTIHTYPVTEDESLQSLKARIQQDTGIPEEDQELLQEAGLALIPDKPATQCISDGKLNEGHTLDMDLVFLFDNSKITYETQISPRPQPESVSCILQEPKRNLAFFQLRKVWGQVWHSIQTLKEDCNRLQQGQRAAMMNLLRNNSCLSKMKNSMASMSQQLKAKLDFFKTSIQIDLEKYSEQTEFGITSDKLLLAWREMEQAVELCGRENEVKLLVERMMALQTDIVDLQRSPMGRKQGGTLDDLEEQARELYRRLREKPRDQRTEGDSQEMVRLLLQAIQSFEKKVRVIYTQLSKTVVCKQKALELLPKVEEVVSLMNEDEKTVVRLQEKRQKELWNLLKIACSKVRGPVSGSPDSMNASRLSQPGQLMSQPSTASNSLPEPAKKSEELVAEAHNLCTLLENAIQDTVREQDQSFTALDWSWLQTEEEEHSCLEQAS

Compound: Cn1cccc1-c1cc2cc(NC(=O)[C@@H]3C[C@H]3F)ncc2c(N)c1F [DD02001A trans, (1S,2R)—N-(8-amino-7-fluoro-6-(1-methyl-1H-pyrrole-2-yl)isoquinolin-3-yl)-2-fluorocyclopropane-1-carboxamide]
- inhibition rate MNK1/2 (MNK1/2): < 40%
- inhibition at 10 µM (IKK-beta): < 40%
- IC50 (HPK1): < 10 nM
- inhibition rate ERK1.2 (ERK1.2): < 40%
- inhibition at 10 µM (PI3Kα): 79.1%
- inhibition at 10 µM (EGFR): < 40%
- inhibition at 10 µM (p38-alpha): < 40%
- inhibition at 10 µM (AKT1): < 40%
- inhibition at 10 µM (CDK4): < 40%
- IC50 (GCK): > 10 nM
- inhibition at 10 µM (CK1gamma1): < 40%
- inhibition at 10 µM (LCK): 87.6%
- inhibition at 10 µM (CDK12): < 40%
- bioavailability [1]: 61.3%
- inhibition at 10 µM (LYNB): 82.9%
- inhibition at 10 µM (IGFIR): < 40%
- inhibition at 10 µM (ROS1): < 40%
- maximum tolerated dosage by gavage [2]: 1000 to 1500 mg/kg
- IC50 (PDK1): > 10000 nM
- inhibition at 10 µM (CSF1R): 102%
- inhibition at 10 µM (ZAP70): < 40%
- IC50 (TNIK): > 10 nM
- inhibition at 10 µM (JAK1): 97.3%
- inhibition at 10 µM (SYK): 85.1%
- inhibition at 10 µM (CDK7): < 40%
- inhibition at 10 µM (ATR): < 40%
- inhibition at 10 µM (HER2): < 40%
